Literature values as cited in patent US10864317B2, “Time controlled periodic infusion” (Ferrosan Medical Devices A/S, priority 2014, dated 2020).

System: peripheral nerve
Conditions: ropivacaine as LA; dependent on regional and individual differences

## CCCN1CCCC[C@H]1C(=O)Nc1c(C)cccc1C [ropivacaine]
  duration of pain relief for nerve blocks: about 12 h
